{"source": "patent US8420312B2", "about": "“Genes associated with canine osteoarthritis and related methods and compositions” (Nestec S.A., priority 2004, dated 2013)", "format_in_all_cases": "cell-based, canine", "key": {"OA-Associated Genes [1]": {"system": "OA-Associated Genes", "experiment": "Microarray analysis of chondrocyte beads treated with 1,25 D3 or 24,25 D3", "settings": "summary statement, Tables 19-20", "description": "Microarray probes were generated by PCR-amplifying clones isolated from differential display. Probes were spotted in duplicate onto poly-L-lysine coated slides using a GMS417 (Affymetrix) arrayer. Osteoarthritic cartilage samples were obtained from the femoral heads of clinically diagnosed canines undergoing total […] replacement. RNA was hybridized to the slides using the HC ExpressArray ([…]) kit and visualized using a GMS418 (Affymetrix) scanner. The […] (Biodiscovery) program was used for spot finding and subsequent data analysis was performed using GeneSight (Biodiscovery). Expression levels are represented after background subtraction, log(base 2) transformation and global slide signal normalization. […] Scanned images representing RNA transcripts bound to specific clones were quantified and checked for spot quality control using […] analysis software (BioDiscovery). Quantified images were analyzed using […] analysis software (BioDiscovery). The analysis represented subtraction of background surrounding the spots, averaging spot replicates, deletion of clone information representing clone hybridization signals not greater than 200 above background on all samples, log (base 2) transformation and global normalization of each slide (values expressed as percent of average spot intensity). […]"}, "OA-Associated Genes [2]": {"system": "OA-Associated Genes", "experiment": "Microarray analysis of chondrocyte beads treated with glucosamine", "settings": "summary statement, Tables 13-18", "description": "(§1) Microarray probes were generated by PCR-amplifying clones isolated from differential display. Probes were spotted in duplicate onto poly-L-lysine coated slides using a GMS417 (Affymetrix) arrayer. Osteoarthritic cartilage samples were obtained from the femoral heads of clinically diagnosed canines undergoing total […] replacement. RNA was hybridized to the slides using the HC ExpressArray (Digene) kit and visualized using a GMS418 (Affymetrix) scanner. The Imagene (Biodiscovery) program was used for spot finding and subsequent data analysis was performed using GeneSight (Biodiscovery). Expression levels are represented after background subtraction, log(base 2) transformation and global slide signal normalization. […]\n(§2) Scanned images representing RNA transcripts bound to specific clones were quantified and checked for spot quality control using Imagene analysis software (BioDiscovery). Quantified images were analyzed using Genesight analysis software (BioDiscovery). The analysis represented subtraction of background surrounding the spots, averaging spot replicates, deletion of clone information representing clone hybridization signals not greater than 200 above background on all samples, log (base 2) transformation and global normalization of each slide (values expressed as percent of average spot intensity). […]"}, "OA-Associated Genes [3]": {"system": "OA-Associated Genes", "experiment": "Microarray analysis of chondrocytes enriched with EPA or AA", "settings": "summary statement, Tables 21-23", "description": "as §1, §2"}, "OA-Associated Genes [4]": {"system": "OA-Associated Genes", "experiment": "Microarray analysis of chondrocyte beads treated with chondroitin sulfate", "settings": "summary statement, Tables 7-12", "description": "as §1, §2"}}, "data": [{"compound": "C=C1/C(=C\\C=C2/CCC[C@]3(C)[C@@H]([C@H](C)CCCC(C)(C)O)CC[C@@H]23)C[C@@H](O)C[C@@H]1O", "note": "[1α,25-dihydroxyvitamin D3]", "values": [{"measurement": "effect on expression of OA-related genes", "setting": "OA-Associated Genes [1]", "result": "affected the expression of OA-related genes"}]}, {"compound": "C=C1CC[C@H](O)C/C1=C/C=C1\\CCC[C@]2(C)[C@@H]([C@H](C)CC[C@@H](O)C(C)(C)O)CC[C@@H]12", "note": "[24R,25-dihydroxyvitamin D3]", "values": [{"measurement": "effect on expression of OA-related genes", "setting": "OA-Associated Genes [1]", "result": "affected the expression of OA-related genes"}]}, {"compound": "N[C@H]1C(O)O[C@H](CO)[C@@H](O)[C@@H]1O", "note": "(some centres unmarked) [Glucosamine, glucosamine]", "values": [{"measurement": "effect on OA-associated genes", "setting": "OA-Associated Genes [2]", "result": "have an effect on a variety of OA-associated genes"}]}, {"compound": "CCCCC/C=C\\C/C=C\\C/C=C\\C/C=C\\CCCC(=O)O", "note": "[arachidonic acid (AA), arachidonic acid]", "values": [{"measurement": "effect on OA-related genes", "setting": "OA-Associated Genes [3]", "result": "affect OA-related genes"}]}, {"compound": "chondroitin sulfate", "values": [{"measurement": "effect on OA-associated genes", "setting": "OA-Associated Genes [4]", "result": "have an effect on a wide variety of OA-associated genes"}]}]}
